Values after ≈ are worked out from the molar mass of the structure shown.
Tests used:
[1] = system: Mycobacterium tuberculosis (strain H37Rv); test: MABA minimum inhibitory concentration assay (aerobic/replicating); type: cell-based; conditions: M.tb H37Rv; for MIC90: Mycobacterium tuberculosis, aerobic/replicating, 90% inhibition of growth
hERG = hERG (Homo sapiens, UniProt Q12809); test: hERG channel blockade, manual patch clamp; type: cell-based; conditions: cloned hERG potassium channels, room temperature; for inhibition at 0.3 µM: read-out: hERG % inhib. at 0.3 µM; for inhibition at 1 µM: read-out: hERG % inhib. at 1.0 µM
Procedure: Selected compounds were evaluated for hERG channel blockade (Table 4) by WuXi AppTec (Shanghai) Co., Ltd. This was carried out using cloned hERG potassium channels according to their standard manual patch clamp method. Two concentrations (0.3 and 1.0 µM) were tested (at room temperature), and at least three replicates were obtained for each. Amitryptyline was used as a standard.

[2] = Microsomal stability, human liver microsomes; type: in vitro ADME; conditions: pH 7.4; for microsomal CLint at 1 μM: human liver microsomes, read-out: HLM Clint(mic)
Procedure: (§1) Assays were performed by WuXi AppTec (Shanghai) Co., Ltd. The test compounds (Table 4) (at 1 μM) were incubated at 37 °C with liver microsomes from human or CD-1 mice in the presence of a NADPH regenerating system and phosphate buffer (100 mM, pH 7.4) at 0.5 mg/mL microsomal protein (the positive controls were testosterone, propafenone, and diclofenac). Samples were removed at time intervals of 0, 5, 10, 20, 30, and 60 min and immediately mixed with cold CH3CN (containing 0.1 μg/mL of tolbutamide as an internal standard) and then centrifuged prior to analysis by LCMS/MS.

[3] = system: Mycobacterium tuberculosis (strain H37Rv); test: LORA minimum inhibitory concentration assay (low-oxygen/non-replicating); conditions: M.tb H37Rv, 90% inhibition of growth
[4] = system: VERO green monkey kidney cells; test: VERO mammalian cell toxicity assay; type: cell-based; conditions: Chlorocebus sabaeus; inhibition of growth of VERO green monkey kidney epithelial cells
[5] = Microsomal stability, mouse liver microsomes; type: in vitro ADME; conditions: for CLint scaled at 1 μM / half-life at 1 μM: CD-1, mouse, microsomes, pH 7.4; for microsomal CLint at 1 μM: CD-1, pH 7.4, mouse liver microsomes, read-out: MLM Clint(mic)
Procedure: as §1

[6] = human/mouse liver microsomes not distinguished, read-out: T½ values (microsomal stability)

Chain of hERG (Q12809 whole entry): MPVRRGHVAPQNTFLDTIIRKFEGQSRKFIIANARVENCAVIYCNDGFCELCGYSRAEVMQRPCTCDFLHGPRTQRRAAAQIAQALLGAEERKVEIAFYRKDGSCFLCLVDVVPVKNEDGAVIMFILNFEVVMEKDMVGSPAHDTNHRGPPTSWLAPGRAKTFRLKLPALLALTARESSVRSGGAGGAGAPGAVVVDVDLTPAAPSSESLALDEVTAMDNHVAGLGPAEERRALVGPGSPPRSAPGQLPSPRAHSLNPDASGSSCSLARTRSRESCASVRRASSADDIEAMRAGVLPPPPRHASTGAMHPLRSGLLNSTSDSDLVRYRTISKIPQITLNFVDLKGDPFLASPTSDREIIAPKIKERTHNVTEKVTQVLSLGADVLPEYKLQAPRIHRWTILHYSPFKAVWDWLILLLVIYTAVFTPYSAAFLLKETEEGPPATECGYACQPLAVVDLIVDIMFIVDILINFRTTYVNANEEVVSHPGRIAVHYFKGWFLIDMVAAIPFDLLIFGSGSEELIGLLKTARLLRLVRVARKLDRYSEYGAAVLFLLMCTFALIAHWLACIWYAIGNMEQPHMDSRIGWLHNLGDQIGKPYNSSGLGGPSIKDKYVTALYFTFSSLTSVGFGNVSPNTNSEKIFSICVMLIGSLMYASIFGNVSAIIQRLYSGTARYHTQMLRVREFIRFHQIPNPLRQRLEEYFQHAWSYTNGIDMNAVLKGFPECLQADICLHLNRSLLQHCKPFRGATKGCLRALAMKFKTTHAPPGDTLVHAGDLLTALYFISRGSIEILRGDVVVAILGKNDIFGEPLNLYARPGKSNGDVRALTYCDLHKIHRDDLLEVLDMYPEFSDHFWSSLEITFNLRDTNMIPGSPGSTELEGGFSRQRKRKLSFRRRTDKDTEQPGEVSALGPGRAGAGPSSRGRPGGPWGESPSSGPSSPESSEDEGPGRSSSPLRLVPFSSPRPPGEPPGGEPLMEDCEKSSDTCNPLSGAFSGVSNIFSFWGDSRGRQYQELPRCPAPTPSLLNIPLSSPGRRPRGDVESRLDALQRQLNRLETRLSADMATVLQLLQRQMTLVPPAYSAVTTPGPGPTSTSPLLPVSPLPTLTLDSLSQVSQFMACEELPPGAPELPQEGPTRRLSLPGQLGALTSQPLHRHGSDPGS

## Fc1ccc(-c2cnn3c(NCc4cc(N5CCCCC5)ccn4)cc(-c4ccccc4)nc23)cc1 [Compound 68, 3-(4-Fluorophenyl)-5-phenyl-N-((4-(piperidin-1-yl)pyridin-2-yl)methyl)pyrazolo[1,5-a]pyrimidin-7-amine]
[1]
  MIC90: 0.96 µg/mL (≈ 2.01 µM)
other
  melting point: 189 to 191 °C
hERG
  inhibition at 0.3 µM: 19%
  inhibition at 1 µM: 36%
[2]; human, microsomes
  CLint scaled at 1 μM: 11 mL/min/kg
  half-life at 1 μM: 1.87 h
[2]
  microsomal CLint at 1 μM: 12 µL/min/mg
[3]
  MIC90 LORA: 0.85 µg/mL (≈ 1.78 µM)
[4]
  IC50: > 32 µg/mL
[5]
  CLint scaled at 1 μM: 92 mL/min/kg
  half-life at 1 μM: 1 h
  microsomal CLint at 1 μM: 23 µL/min/mg

## Fc1ccc(-c2cnn3c(NCc4ccccn4)cc(C4CC4)nc23)cc1 [Compound 25, 5-Cyclopropyl-3-(4-fluorophenyl)-N-(pyridin-2-ylmethyl)pyrazolo[1,5-a]pyrimidin-7-amine]
[1]
  MIC90: 1.54 µg/mL (≈ 4.28 µM)
hERG
  inhibition at 0.3 µM: 8%
  inhibition at 1 µM: 19%
[2]; human, microsomes
  CLint scaled at 1 μM: 68 mL/min/kg
  half-life at 1 μM: 0.3 h
[2]
  microsomal CLint at 1 μM: 76 µL/min/mg
[2]; [6]
  half-life at 1 μM: < 1.42 h
[3]
  MIC90 LORA: 0.20 µg/mL (≈ 0.556 µM)
[4]
  IC50: 23.4 µg/mL (≈ 65.1 µM)
[5]
  CLint scaled at 1 μM: 424 mL/min/kg
  half-life at 1 μM: 0.217 h
  microsomal CLint at 1 μM: 107 µL/min/mg

## Fc1ccc(-c2cnn3c(NCc4ccc(Cl)cn4)cc(-c4ccccc4)nc23)cc1 [Compound 53, N-((5-Chloropyridin-2-yl)methyl)-3-(4-fluorophenyl)-5-phenylpyrazolo[1,5-a]pyrimidin-7-amine]
[1]
  MIC90: 4.9 µg/mL (≈ 11.4 µM)
other
  melting point: 139 to 141 °C
hERG
  inhibition at 0.3 µM: 0.7%
  inhibition at 1 µM: 0%
[2]; human, microsomes
  CLint scaled at 1 μM: < 8.6 mL/min/kg
  half-life at 1 μM: > 2.42 h
[2]
  microsomal CLint at 1 μM: < 9.6 µL/min/mg
[3]
  MIC90 LORA: 7.2 µg/mL (≈ 16.7 µM)
[4]
  IC50: > 32 µg/mL
[5]
  CLint scaled at 1 μM: < 38 mL/min/kg
  half-life at 1 μM: > 2.42 h
  microsomal CLint at 1 μM: < 9.6 µL/min/mg

## COc1ccc(-c2cnn3c(NCc4ccccn4)cc(-c4ccccc4)nc23)cc1 [Compound 20, 3-(4-Methoxyphenyl)-5-phenyl-N-(pyridin-2-ylmethyl)pyrazolo[1,5-a]pyrimidin-7-amine]
[1]; MABA/LORA
  anti-mycobacterial activity in words: active
[1]
  MIC90: 3.6 µg/mL (≈ 8.83 µM)
other
  melting point: 187 to 189 °C
hERG
  inhibition at 0.3 µM: 0%
  inhibition at 1 µM: 0%
[2]; human, microsomes
  CLint scaled at 1 μM: 20 mL/min/kg
  half-life at 1 μM: 1.03 h
[2]
  microsomal CLint at 1 μM: 22 µL/min/mg
[2]; [6]
  half-life at 1 μM: < 1.42 h
[3]
  MIC90 LORA: 0.51 µg/mL (≈ 1.25 µM)
[4]
  IC50: > 32 µg/mL
[5]
  CLint scaled at 1 μM: 92 mL/min/kg
  half-life at 1 μM: 1 h
  microsomal CLint at 1 μM: 23 µL/min/mg

## CC(C)(C)c1ccc(-c2cc(NCc3ccccn3)n3ncc(-c4ccc(F)cc4)c3n2)cc1 [Compound 36, 5-(4-(Tert-butyl)phenyl)-3-(4-fluorophenyl)-N-(pyridin-2-ylmethyl)pyrazolo[1,5-a]pyrimidin-7-amine]
[1]
  MIC90: 1.7 µg/mL (≈ 3.76 µM)
hERG
  inhibition at 0.3 µM: 0%
  inhibition at 1 µM: 0%
[2]; human, microsomes
  CLint scaled at 1 μM: < 8.6 mL/min/kg
  half-life at 1 μM: > 2.42 h
[2]
  microsomal CLint at 1 μM: < 9.6 µL/min/mg
[3]
  MIC90 LORA: 1.9 µg/mL (≈ 4.21 µM)
[4]
  IC50: > 32 µg/mL
[5]
  CLint scaled at 1 μM: < 38 mL/min/kg
  half-life at 1 μM: > 2.42 h
  microsomal CLint at 1 μM: < 9.6 µL/min/mg

## Cc1cccc(-c2cc(NCc3ccccn3)n3ncc(-c4ccc(F)cc4)c3n2)c1 [Compound 30, 3-(4-Fluorophenyl)-N-(pyridin-2-ylmethyl)-5-(m-tolyl)pyrazolo[1,5-a]pyrimidin-7-amine]
[1]
  MIC90: 1.6 µg/mL (≈ 3.91 µM)
hERG
  inhibition at 0.3 µM: 3%
  inhibition at 1 µM: 11%
[2]; human, microsomes
  CLint scaled at 1 μM: < 8.6 mL/min/kg
  half-life at 1 μM: > 2.42 h
[2]
  microsomal CLint at 1 μM: < 9.6 µL/min/mg
[3]
  MIC90 LORA: 0.9 µg/mL (≈ 2.2 µM)
[4]
  IC50: > 32 µg/mL
[5]
  CLint scaled at 1 μM: < 38 mL/min/kg
  half-life at 1 μM: > 2.42 h
  microsomal CLint at 1 μM: < 9.6 µL/min/mg

## Fc1ccc(-c2cnn3c(NCc4ccccn4)cc(-c4ccc(OC(F)(F)F)cc4)nc23)cc1 [Compound 38, 3-(4-Fluorophenyl)-N-(pyridin-2-ylmethyl)-5-(4-(trifluoromethoxy)phenyl)pyrazolo[1,5-a]pyrimidin-7-amine]
[1]
  MIC90: 1.9 µg/mL (≈ 3.96 µM)
hERG
  inhibition at 0.3 µM: 2%
  inhibition at 1 µM: 2%
[2]; human, microsomes
  CLint scaled at 1 μM: 15 mL/min/kg
  half-life at 1 μM: 1.43 h
[2]
  microsomal CLint at 1 μM: 16 µL/min/mg
[2]; [6]
  half-life at 1 μM: < 1.42 h
[3]
  MIC90 LORA: 1.1 µg/mL (≈ 2.29 µM)
[4]
  IC50: > 32 µg/mL
[5]
  CLint scaled at 1 μM: < 38 mL/min/kg
  half-life at 1 μM: > 2.42 h
  microsomal CLint at 1 μM: < 9.6 µL/min/mg

— paper PMC9506485, “Synthesis and Structure–Activity Relationships for the Anti-Mycobacterial Activity of 3-Phenyl-N-(Pyridin-2-ylmethyl)Pyrazolo[1,5-a]Pyrimidin-7-Amines” (Pharmaceuticals, 2022)
